Results on 1 compound are retold here after patent publication US20210369677A1, “SMALL MOLECULE ACTIVATORS OF POLYCYSTIN-2 (PKD2) AND USES THEREOF” (Northwestern University, priority 2020, published 2021).

This assay deals with T1, polycystin-2L1 (Homo sapiens, UniProt Q9P0L9, C210S/C223S).
T1 construct: expressed in transfected cells; host or cells: HEK cells, transient overexpression
In kind it is cell-based. Conditions: C210S:C223S mutant. The protocol:
Electrophysiology. Ciliary ion currents were recorded using borosilicate glass electrodes polished to resistances of 14-22 MΩ using the cilium patch method previously described^32. Whole cell electrodes used to measure poly cystin-2L1 currents were fire polished to 1.5-4 MΩ resistances. Unless otherwise stated, whole cilia ionic currents were recorded in symmetrical [Na^+]. The pipette standard internal solution contained (in mM): 90 NaMES, 10 NaCl, 10 HEPES, 10 Na4-BAPTA (Glycine, N, N′-[1,2-ethanediylbis(oxy-2,1-phenylene)]bis[N-(carboxymethyl)]-,tetrasodium); pH was adjusted to 7.3 using NaOH. Standard bath solution contained 140 NaCl, 10 HEPES, 1.8 CaCl2); pH 7.4. All solutions were osmotically balanced to 295 (±6) mOsm with mannitol. Extracellular solutions containing TCEP and GSH were used within six hours of formulation. Data were collected using an Axopatch 200B patch clamp amplifier, Digidata 1440A, and pClamp 10 software. Whole-cilium and excised patch currents were digitized at 25 kHz and low-pass filtered at 10 kHz. In the whole cilium configuration, the holding potential was −60 mV and then depolarized using a 400 ms voltage ramp from −100 mV to 100 mV. The whole cell recordings of polycystin-2L1 currents were either activated by the same ramp protocol or by 100 ms depolarizations to 100 mV from a −100 mV holding potential. External conditions were controlled using a Warner Perfusion Fast-Step (SF-77B) system in which the patched cilia and electrode were held in the perfusate stream. Data were analyzed by Igor Pro 7.00 (Wavemetrics, Lake Oswego, Oreg.). The polycystin-2 open probability and the polycystin-2L1 tail current-voltage relationships were fit to a Boltzmann function, f(x)=1/(1+exp[V−V1/2]/k) to estimate voltage of half-maximal activation of current (V1/2).

Structures are written as SMILES.

T1 sequence (Q9P0L9 whole entry C210S/C223S): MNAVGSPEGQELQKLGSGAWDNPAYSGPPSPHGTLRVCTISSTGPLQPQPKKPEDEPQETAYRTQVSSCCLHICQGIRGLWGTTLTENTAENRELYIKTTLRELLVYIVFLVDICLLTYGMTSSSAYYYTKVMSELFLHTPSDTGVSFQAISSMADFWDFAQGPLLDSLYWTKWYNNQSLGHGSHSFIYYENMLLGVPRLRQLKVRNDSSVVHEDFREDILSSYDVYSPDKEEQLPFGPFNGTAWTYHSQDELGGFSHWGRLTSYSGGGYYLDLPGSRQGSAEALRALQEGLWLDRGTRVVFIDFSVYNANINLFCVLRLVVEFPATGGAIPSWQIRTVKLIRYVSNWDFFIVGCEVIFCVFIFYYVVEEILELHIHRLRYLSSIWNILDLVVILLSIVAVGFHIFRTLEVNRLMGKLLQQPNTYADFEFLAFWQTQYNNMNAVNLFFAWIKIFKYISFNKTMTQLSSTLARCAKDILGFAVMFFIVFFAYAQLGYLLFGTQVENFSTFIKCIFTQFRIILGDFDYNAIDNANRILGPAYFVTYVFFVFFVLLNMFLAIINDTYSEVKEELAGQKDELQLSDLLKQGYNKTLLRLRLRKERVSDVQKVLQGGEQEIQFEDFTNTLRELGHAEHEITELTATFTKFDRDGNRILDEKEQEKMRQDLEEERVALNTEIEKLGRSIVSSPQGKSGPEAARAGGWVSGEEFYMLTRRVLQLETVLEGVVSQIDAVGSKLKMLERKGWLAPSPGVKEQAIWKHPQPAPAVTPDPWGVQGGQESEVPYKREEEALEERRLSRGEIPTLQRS

Regarding `N[C@@H](CCC(=O)N[C@@H](CS)C(=O)NCC(=O)O)C(=O)O` [GSH, reduced glutathione], the “Effect on C210S:C223S polycystin-2L1 channel” value was “insensitive”.
